Data published in PubChem BioAssay (NCI).
Values joined by “and” are separate entries in the source; they are usually repeats but may differ in a detail not shown here. Equal values may be shown once.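 Each compound was tested at five concentrations against cells in 96-well plates for 48 hours. Abbreviation: GI50, concentration required for 50% inhibition of growth. TGI: total growth inhibition.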

How the values were obtained:
Test in all cases: inhibition of tumour cell growth, NCI panel, 48 h
SF-268 CNS = system: SF-268 CNS
OVCAR-8 ovarian = system: OVCAR-8 ovarian
MDA-MB-231 breast = system: MDA-MB-231 breast
HCC-2998 colon = system: HCC-2998 colon
OVCAR-3 ovarian = system: OVCAR-3 ovarian
HL-60(TB) leukemia = system: HL-60(TB) leukemia
SF-295 CNS = system: SF-295 CNS
SNB-75 CNS = system: SNB-75 CNS
NCI-H522 lung = system: NCI-H522 lung
IGROV1 ovarian = system: IGROV1 ovarian
CCRF-CEM leukemia = system: CCRF-CEM leukemia

SMILES | TGI (SF-268 CNS) [µM] | TGI (OVCAR-8 ovarian) [µM] | TGI (MDA-MB-231 breast) [µM] | TGI (HCC-2998 colon) [µM] | TGI (OVCAR-3 ovarian) [µM] | TGI (HL-60(TB) leukemia) [µM] | TGI (SF-295 CNS) [µM] | TGI (SNB-75 CNS) [µM] | TGI (NCI-H522 lung) [µM] | TGI (IGROV1 ovarian) [µM] | TGI (CCRF-CEM leukemia) [µM] | GI50 (SF-268 CNS) | GI50 (HCC-2998 colon)
CC(C)=CCC/C(C)=C/Cc1cc(/C=C/c2cc(O)c(CC=C(C)C)c(O)c2)cc(O)c1O | 12.3 | 14.9 | 23.8 | 5.86 | 5.83 | 2.79 | 18.2 | 7.57 | 0.38 | 6.81 | – | – | –
CC1CN=C(NCc2ccccc2)S1 (stereo not drawn) | > 100 | – | > 100 | > 100 | > 100 | > 100 | – | > 100 | > 100 | – | > 100 | – | –
CSc1nc(=S)[nH]c2n[nH]c(C)c12 | > 100 | > 100 | > 100 | > 100 | > 100 | > 100 | – | > 100 | > 100 | – | > 100 | – | –
Cc1ccc(-c2c(C#N)c(-c3ccc(N(C)C)cc3)c(C#N)c(=O)n2NS(=O)(=O)c2ccccc2)cc1 | > 100 | > 100 | > 100 | > 100 | – | > 100 | > 100 | > 100 | > 100 | > 100 | 96.3 | – | –
O=c1cc(-c2ccc(O)c(O)c2)oc2cc(OC3OC(CO)C(O)C(O)C3O)cc(O)c12 (stereo not drawn) | > 100 | > 100 | > 100 | > 100 | > 100 | > 100 | > 100 | > 100 | > 100 | > 100 | – | – | –
Cc1sc2ncnc(NCCc3ccccc3)c2c1C | 60.1 | 38 | 37.9 | 31.1 | > 100 | 29.3 | 36.9 | 53.5 | 25.1 | 32.5 | 49.3 | – | –
CN(C)c1ccc(C2CC(=O)CC(c3ccc(N(C)C)cc3)C23C(=O)NC(=O)NC3=O)cc1 (stereo not drawn) | > 25 | > 25 | > 25 | > 25 | > 25 | > 25 | > 25 | > 25 | > 25 | > 25 | > 25 | – | –
COc1ccc(NS(=O)CCc2ccccc2)cc1 (stereo not drawn) | > 100 | > 100 | > 100 | > 100 | > 100 | > 100 | > 100 | > 100 | > 100 | > 100 | > 100 | – | –
COC(=O)n1c(=O)nc2c3c(ncn21)Oc1c(c(-c2ccccc2)nn1-c1ccccc1)C3c1ccc(Cl)cc1 (stereo not drawn) | – | – | 3.05 | 2.72 | 2.72 | 3.17 | 3.04 | 7.69 | 2.82 | – | 3.27 | – | –
O=C(CNC(=O)OCc1ccccc1)NCCCCC(NC(=O)OCc1ccccc1)C(=O)O (stereo not drawn) | > 100 | > 100 | > 100 | > 100 | > 100 | > 100 | > 100 | > 100 | > 100 | > 100 | > 100 | – | –
CC(=O)c1c2c(cc3c1CC1(Cc4cc5c(cc4C1)CCC5)C3)CCC2 | > 100 | > 100 | > 100 | > 100 | > 100 | > 100 | > 100 | > 100 | > 100 | > 100 | > 100 | – | –
CCOc1ccc(C2c3[nH]c4ccccc4c3CCN2C(=O)c2cccs2)cc1 (stereo not drawn) | > 100 | > 100 | > 100 | > 100 | > 100 | > 100 | > 100 | > 100 | > 100 | > 100 | > 100 | – | –
COC(=O)/C=C/c1cc(OC)c2c(c1)C(C(=O)OC)C(c1ccc(OC)c(OC)c1)O2 (stereo not drawn) | > 100 | > 100 | > 100 | > 100 | > 100 | > 100 | > 100 | 5.61 | > 100 | > 100 | > 100 | 70.7 µM and 10.7 µM | > 100 µM and 38.6 µM
CCn1c(=O)c2c(=O)[nH][nH]c2c2ccccc21 | – | > 100 | > 100 | > 100 | > 100 | > 100 | > 100 | > 100 | > 100 | > 100 | > 100 | – | –
Cc1c(-c2ccccc2)c(-c2ccc(OCCN(C)C)cc2)n2ccccc12 | 34.2 | 28.5 | 23.6 | 3.27 | 26.1 | 19.4 | 26.7 | 22.4 | 24 | 23.8 | 15.5 | – | –
Cc1ccc2c(c1)C(C1Cc3c(C)cccc3C1=O)OC2=O (stereo not drawn) | > 100 | > 100 | > 100 | > 100 | > 100 | > 100 | > 100 | > 100 | > 100 | > 100 | > 100 | – | –
CCCCCCN(C(=O)Oc1ccccc1)C(C#N)c1ccccc1 (stereo not drawn) | > 100 | > 100 | > 100 | > 100 | > 100 | > 100 | > 100 | > 100 | > 100 | > 100 | > 100 | – | –
O=C1C(NCCc2cc(Br)c(O)c(Br)c2)=CC(=O)c2ncccc21 | 40.3 | 32.7 | 29.5 | 26 | 6.26 | 12.7 | 12.9 | 5.34 | 12.1 | 10.3 | 23.5 | – | –
